According to US20120071544A1, “Methods For Identifying Compounds Effective To Increase The Expression Or Activity Of Aspartyl Aminopeptidase In Mammalian Pancreatic Islet Cells, And Methods For Decreasing Angiotensin II Levels In Mammalian Pancreatic Islet Cells” (priority 2010, published 2012):

Legend:
DAP mRNA = DAP mRNA level in transfected MIN6 cells by RT-PCR; assay type: cell-based, mouse; details: 48 hours culture
Description: It was also investigated whether endogenous DAP levels affect the Ang II levels. Dnpep siRNA and control siRNA were purchased (Qiagen, Germantown, Md.). The target sequences were nucleotides 328-348 (SEQ ID NO. 11:
[…]) of mouse Dnpep cDNA (GenBank NM_001110831; SEQ ID NO. 12). MIN6 cells were maintained in DMEM, supplemented with 10% FCS, 10 mM glucose, 2 mmol/l glutamine, 100 U/ml penicillin, and 0.1 mg/ml streptomycin.
(§1) The cells were transfected with […] of Dnpep siRNA of SEQ ID NO. 13, non-silencing control siRNA, or a full-length of Dnpep cDNA (SEQ ID NO. 12) in pCMV-SPORT6 (Open Biosystems, Huntsville, Ala.) by electroporation (BioRad Laboratories, Berkeley, Calif.). A total of 1×10^5 of the cells was seeded into 6-well culture plates coated with poly-L-lysine and cultured for 24 h. The transfection efficiency was approximately 50 percent according to a co-transfected GFP marker.
(§2) After 48 hours culture, cells and culture media were collected. Real-time PCR (RT-PCR) was conducted with the primers (Assay ID Details: Mm00497488_m1*) and the 7900HT Fast Real-Time PCR System (Applied Biosystems, Foster City, Calif.). Western blots were performed using the ECL Reagents (GE, Piscataway, N.J.).

[1] = tested on: Ang II levels in MIN6 cells; assay: Ang II levels in MIN6 cell lysates and cultured media by Ang II ELISA; assay type: cell-based, mouse
Description: (§3) The DAP gene was either knocked down with DAP RNAi construct or overexpressed by transient transfection of DAP-pCMV in MIN6 cells.
(§4) The full-length DAP construct or the control vector was transfected into MIN6 cells. After culturing for 48 hours, MIN6 cells and the culture media were harvested for measurement of DAP and Ang II levels. Higher expression level of DAP (2.1-fold±0.6) in DAP-pCMV-transfected MIN6 cells compared to that in the vector-transfected cells was detected by Western blots. Ang II levels in MIN6 cell lysates and the cultured media were measured after the transfection and compared to the control transfected cells. Ang II-specific ELISA kit (Cayman Chemical) was used for the measurements.
as §1, §2
Ang II levels were measured using the AssayMax Ang II ELISA Kit (Cayman Chemical, Ann Arbor, Mich.). Briefly, standards or samples were incubated in a 96-well plate with biotinylated anti-Ang II antibody for 2 h. After the washings, Streptavidin-Peroxidase Conjugate was added for 30 min. The final reaction was developed with the substrate chromogen and read at 450 nm by an ELISA reader. Ang II levels in the samples were calculated from an Ang II standard curve run with each assay. Values (mean±SEM) are from at least three independent experiments. ANOVA with Tukey's post hoc test was used for statistical analysis.

DAP = DAP protein level in transfected MIN6 cells by Western blot; assay type: cell-based, mouse; details: 48 hours culture, Western blots
Description: as §3, §4, §1
After 48 hours culture, cells and culture media were collected. […]

Angiotensin II (1-8) = assay: cell-based or functional assay

Substance: DAP RNAi: Dnpep siRNA (Qiagen, SEQ ID NO. 13) targeting nucleotides 328-348 of mouse Dnpep cDNA (AATGTGGCCTGGATGGCCTCT; listed as DNA, chemistry not given here; the letters are possibly those of the target site; listed as Mus musculus)
- Endogenous DAP mRNA level knocked down (DAP mRNA): 78%
- Intracellular Ang II levels ([1]; MIN6 cell lysates, 48 hours after transfection, mean±SEM): 50±6 pg/mg protein
- Intracellular Ang II levels, increase compared to control cells ([1]; MIN6 cell lysates, 48 hours culture): up to 74%
- Extracellular Ang II levels, increase compared to control cells ([1]; MIN6 culture media, 48 hours culture): 57%
- Extracellular Ang II levels ([1]; MIN6 cultured media, 48 hours after transfection, mean±SEM): 52±5.3 pg/mg protein
- DAP protein level decrease compared to control cells (DAP): 70%

Substance: aspartyl aminopeptidase (DAP), mouse, gene product of Dnpep (from UniProt Q9Z2W0 1-473) (enzyme)
- extracellular Ang II level in DAP RNAi-transfected MIN6 cells against control cells (Ang II ELISA) (percent increase) (Angiotensin II (1-8)): 57
- extracellular Ang II level in DAP-transfected MIN6 cells against control cells (Ang II ELISA) (percent lower) (Angiotensin II (1-8)): 35
- intracellular Ang II level in DAP RNAi-transfected MIN6 cells against control cells (Ang II ELISA) (percent increase) (Angiotensin II (1-8)): 74
- intracellular Ang II level in DAP-transfected MIN6 cells against vector-treated cells (Ang II ELISA) (percent lower) (Angiotensin II (1-8)): 28
